By inhibition is commonly meant the share of the control response that was lost under treatment.

Data on 19 compounds can be found in patent US11952387B2, “Bicyclic heteroaromatic ring derivative” (priority 2018, dated 2024).

The assay concerns HRV14. The experiment in a line: Inhibitory activity against human rhinovirus infection and replication (quantitative real-time PCR). It counts as cell-based. The following applies: Human rhinovirus sp., MRC5; 100 nmol/L test compound; MRC-5 cells infected with HRV14 at MOI=0.2; 48 hours; viral load normalized to 18s rRNA; read-out: Percent Inhibition. The procedure, abridged:
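Near-confluent MRC-5 cells were pretreated 30 min with compound at 100 or 1000 nmol/L, then infected with HRV14 (MOI 0.2) in compound-containing medium (2% FBS, 30 mmol/L MgCl2) and cultured 48 h at 35 °C. HRV14 RNA by qRT-PCR, normalized to 18S rRNA; percent inhibition versus untreated infected cells.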
In general terms: In qPCR the cycle at which signal appears reflects the starting amount.
For the compound `COc1ccc(-c2c(C)nc3sc(C(C)(C)O)nn23)cc1S(=O)(=O)NC[C@H]1C[C@H](O)C1` [Example 21-6], the inhibition at 0.1 µM was no more than 50%.

As for `COc1ccc(-c2c(C)nc3sc(C(C)(C)O)nn23)cc1S(=O)(=O)NCC(C)(C)O` [Example 21-7], the inhibition at 0.1 µM lay within 50 to 80%.

In the case of `COc1ccc(-c2c(C)nc3sc(C(C)(C)O)nn23)cc1S(=O)(=O)N[C@H]1C[C@H](O)C1` [Example 21-8], the inhibition at 0.1 µM fell in the range of 50 to 80%.

For `COc1ccc(-c2c(C)nc3sc(C(C)(C)O)nn23)cc1S(=O)(=O)N[C@H]1C[C@@H](CO)C1` [Example 21-9], the inhibition at 0.1 µM is no more than 50%.

Consider `COc1ccc(-c2c(C)nc3sc(C(C)(C)O)nn23)cc1S(=O)(=O)N[C@H]1C[C@@H](O)C1` [Example 21-10], for which the inhibition at 0.1 µM is no more than 50%.

As to `COc1ccc(-c2c(C)nc3sc(C(C)(C)O)nn23)cc1S(=O)(=O)NC12CCC(O)(CC1)CC2` [Example 21-11], the inhibition at 0.1 µM is no more than 50%.

Regarding `COc1ccc(-c2c(C)nc3sc(C(C)(C)O)nn23)cc1S(=O)(=O)N[C@H]1CC[C@](C)(O)CC1` [Example 21-12], the inhibition at 0.1 µM lay in the range of 50 to 80%.

For the compound `COc1ccc(-c2c(C)nc3sc(C(C)(C)O)nn23)cc1S(=O)(=O)N[C@H]1CC[C@@](C)(O)CC1` [Example 21-13], the inhibition at 0.1 µM is no more than 50%.

In the case of `COc1ccc(-c2c(C)nc3sc(C(C)(C)O)nn23)cc1S(=O)(=O)NC1(C)CCC(O)CC1` (stereo not shown) [Example 21-14], the inhibition at 0.1 µM was greater than 80%.

In the case of `COc1ccc(-c2c(C)nc3sc(C(C)(C)O)nn23)cc1S(=O)(=O)NC1(CO)CC(F)(F)C1` [Example 21-15], the inhibition at 0.1 µM is greater than 80%.

As for `COc1ccc(-c2c(C)nc3sc(C(C)(C)O)nn23)cc1S(=O)(=O)NCC(O)C(F)(F)F` (stereo not shown) [Example 21-16], the inhibition at 0.1 µM is 50 to 80%.

For the compound `COc1ccc(-c2c(C)nc3sc(C(C)(C)O)cn23)cc1S(=O)(=O)Nc1ccc(O)cc1` [Example 21-18], the inhibition at 0.1 µM lay within 50 to 80%.

On to `COc1ccc(-c2c(C)nc3sc(C(C)(C)O)cn23)cc1S(=O)(=O)Nc1ccc(F)cc1` [Example 21-19], for which the inhibition at 0.1 µM was 50 to 80%.

For `COc1ccc(-c2c(C)nc3sc(C(C)(C)O)nn23)cc1S(=O)(=O)Nc1ccc(C#N)cc1` [Example 21-20], the inhibition at 0.1 µM was no more than 50%.

For `COc1ccc(-c2c(C)nc3sc(C4(O)CC4)cn23)cc1S(=O)(=O)N[C@H]1CC[C@@H](O)CC1` [Example 22], the inhibition at 0.1 µM is no more than 50%.

With `COc1ccc(-c2c(C)nc3sc(C(C)(C)O)nn23)cc1S(=O)(=O)NC1(C(C)(C)O)CC1` [Example 23], the inhibition at 0.1 µM is greater than 80%.

Take `COc1ccc(-c2c(C)nc3sc(C(C)(C)O)cn23)cc1S(=O)(=O)N(C)[C@H]1CC[C@@H](O)CC1` [Example 24]: the inhibition at 0.1 µM was no more than 50%.

Take `C=C(C)c1cn2c(-c3ccc(OC)c(S(=O)(=O)N[C@H]4CC[C@@H](O)CC4)c3)c(C)nc2s1` [Example 25]: the inhibition at 0.1 µM lay in the range of 50 to 80%.

On to `COc1ccc(-c2c(C)nc3sc(C(C)(C)O)nn23)cc1S(=O)(=O)Cc1ccc(N)cc1` [Example 26], for which the inhibition at 0.1 µM is no more than 50%.
